From publication PMC4682813, “The Aminosteroid Derivative RM-133 Shows In Vitro and In Vivo Antitumor Activity in Human Ovarian and Pancreatic Cancers” (PLoS ONE, 2015)

What was measured:
OVCAR-3 cells = test: MTS cell proliferation (viability) assay, OVCAR-3; type: cell-based; conditions: Homo sapiens, 72 h incubation
Protocol: (§1) Human ovarian (OVCAR-3) and pancreatic (PANC-1) cancer cells were purchased from the American Type Culture Collection (ATCC, Rockville, MD) and maintained in exponential growth in a 5% CO2 humidified atmosphere at 37°C. OVCAR-3 cells were routinely grown in RPMI-1640 medium (Sigma, St. Louis, MO) supplemented with 20% FBS, L-glutamine (2 mM), antibiotics (100 IU penicillin/mL and 100 μg streptomycin/mL), insulin (50 ng/mL), and estradiol (1 nM). For OVCAR-3 cell proliferation assays, the medium used was identical, except for the omission of estradiol. […]
(§2) The cell proliferation assay was performed with a colorimetric method using 3-(4,5-dimethylthiazol-2-yl)-5-(3-carboxymethoxyphenyl)2-(4-sulfophenyl)-2H-tetrazolium (MTS) (Cell Titer 96 Aqueous, Promega, Madison, WI). […] MTS is converted to water-soluble colored formazan by dehydrogenases present in metabolically active cells, and therefore, the MTS assay allows the immediate determination of absorbance of the soluble formazan directly in the cell medium and thus the measurement of viable cells. The A 490 of the medium was determined using a 96-well microplate reader INFINITE 200 PRO series (TECAN, Männedorf, Switzerland). The IC50 value of RM-133 was determined for each of the two cell lines using the GraphPad Prism 7 software (GraphPad Software, Inc., San Diego, CA).

PANC-1 cells = test: MTS cell proliferation (viability) assay, PANC-1; type: cell-based; conditions: Homo sapiens, 72 h incubation
Protocol: as §1, §2

[1] = system: OVCAR-3 tumors xenografted in nu/nu nude mice; test: OVCAR-3 xenografts in nude mice, propylene glycol-based vehicle (first part); type: in vivo; conditions: 60 mg/kg s.c. daily, propylene glycol:EtOH (92:8)
Source text: All in vivo experiments were approved by our Institutional Animal Care and Use Committee (Comités de protection des animaux de l’Université Laval) and carried out according to the guidelines of the Canadian Council on Animal Care. For xenografts, homozygous ♀ nu/nu nude mice (24–42 days old) were purchased from Charles River Inc. (Saint-Constant, QC, Canada) and housed (four to five) in vinyl micro-isolated ventilated cages, equipped with air lids, which were kept in laminar airflow hoods and maintained under pathogen-limiting conditions. During the acclimatization and study period, the animals were housed under a controlled environment at 22 ± 3°C, with 50 ± 20% relative humidity and light set at 12 h/day (light on at 07:15). Rodent food (Rodent diet #T.2018.15, Harlan Teklad, Madison, WI) and water were provided ad libitum. For nu/nu nude mice, food and water were sterilized prior to dispensing to the animals. Standard Balb/c mice were used for pharmacokinetic studies. Animals were anesthetized with isoflurane and killed by cervical dislocation.
Twenty-two ♀ nu/nu nude mice (22–24 g) were inoculated s.c. with 5×10^6 OVCAR-3 cells (in 0.1 mL of growth medium containing 30% Matrigel (BD Biosciences, Bedford, MA)) into both flanks in each mouse via a 2.5-cm long 22-gauge needle. After 11 days, tumor-bearing mice were randomly assigned to two groups of 11 mice each according to tumor size, i.e. a control group (n = 12 tumors) and a treated group (n = 15 tumors). RM-133 was administered s.c. daily at 60 mg/kg in 0.1 mL of propylene glycol:EtOH (92:8). Animals in the control group received 0.1 mL of vehicle alone. Tumor size was measured twice weekly using a caliper. Two perpendicular diameters (L and W) were measured, and the tumor area (in mm^2) was calculated using the formula (L/2) x (W/2) x π. Animals were weighed at various intervals during the experiment.

[2] = Plasma concentration of RM-133 in mice at different injection doses; type: in vivo, Balb/c mice
Protocol: Eight ♀ Balb/c mice weighing approximately 20 g were separated in 4 groups. Mice in each group received a single s.c. injection of RM-133 (30, 60, 120, or 480 mg/kg). The vehicle used was propylene glycol:EtOH (92:8) and injection volume was 0.1 mL for all concentrations except at 480 mg/kg, where 0.2 mL was used. Blood was collected by cardiac puncture after 12 h, and the plasma concentration of RM-133 determined by LC-MS/MS as above.

CYP3A4 = system: CYP3A4; set-up: method as in PMID 25300820; conditions: low to moderate risk of drug-drug interactions; cited from earlier work
CYP2D6 = system: CYP2D6; set-up: method as in PMID 25300820; conditions: low to moderate risk of drug-drug interactions; cited from earlier work

Compound: C#C[C@]1(O)CC[C@H]2[C@@H]3CC[C@H]4C[C@H](O)[C@@H](N5CCN(C(=O)[C@@H]6CCCN6C(=O)c6ccc7ccccc7n6)CC5)C[C@]4(C)[C@H]3CC[C@@]21C [RM-133]
- IC50 (OVCAR-3 cells): 800 nM
- IC50 (PANC-1 cells): 300 nM
- effect on body weight ([1]; 21-day treatment): no apparent effect on body weight
- day from which treated tumors were significantly smaller than control [1]: 15 days
- difference in tumor size between treated and control groups (tumor growth inhibition) ([1]; end of treatment (21 days)): 60%
- tolerance ([2]; 480 mg/kg s.c. in 0.2 mL propylene glycol:EtOH (92:8), motion discomfort, same with vehicle alone): not tolerated
- plasma concentration as percentage of the injected amount ([2]; 12 h after single s.c. 30 mg/kg, propylene glycol:EtOH (92:8)): 17%
- concentration at 12 h ([2]; female, mouse, plasma, sc, 12 h after single s.c. 30 mg/kg, propylene glycol:EtOH (92:8), Balb/c mice): 167 ng/mL
- inhibition of CYP3A4 (CYP3A4): weak inhibition
- inhibition of CYP2D6 (CYP2D6): weak inhibition
